We go through 16 compounds from patent US20160193206A1, “BET-PROTEIN-INHIBITING DIHYDROPYRIDOPYRAZINONES” (BAYER PHARMA AKTIENGESELLSCHAFT, priority 2012, published 2016).

One experiment deals with MOLM-13 cell line. Kind of experiment: MOLM-13 cell proliferation assay (alamarBlue). It counts as cell-based. Conditions: Homo sapiens, inhibition of proliferation of MOLM-13 cells (acute myeloid leukaemia), 96 hours incubation. In a few lines:
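MOLM-13 (human AML) cells were treated with compound dilutions for 96 h at 37 °C after overnight plating, and viability was read by alamarBlue fluorescence (ex 530/em 590 nm). Pre-treatment readings were subtracted from end-point readings, and IC50 was calculated relative to buffer-only controls.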

The target of experiment [1] is T1, BRD4 bromo domain 2 [BRD4(2)] (Homo sapiens, UniProt O60885).
T1 construct: N-terminally His6-tagged BRD4(2) (amino acids 357-445); made in house; host or cells: E. coli
Kind of experiment: BRD4(2)/acetylated peptide H4 binding assay (TR-FRET). Conditions: inhibition of interaction between His6-tagged BRD4(2) (amino acids 357-445) and acetylated histone H4 peptide. Put shortly: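 TR-FRET displacement of biotinylated tetra-acetylated H4 peptide from His6-BRD4(2) (aa 357-445, E. coli-expressed), 100 nM final, in HEPES pH 7.5 buffer; 11 compound concentrations 0.1 nM-20 μM, 10 min preincubation, then 1 h 22 °C plus ≥3 h 4 °C. 665/620 ratio read; IC50 by 4-parameter fit.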

Experiment [2] addresses T2, BRD4 bromo domain 1 [BRD4(1)] (Homo sapiens, UniProt O60885).
T2 construct: N-terminally His6-tagged BRD4(1) (amino acids 67-152); made in house; host or cells: E. coli
Briefly: BRD4(1)/acetylated peptide H4 binding assay (TR-FRET). Conditions: inhibition of interaction between His6-tagged BRD4(1) (amino acids 67-152) and acetylated histone H4 peptide. In a few lines:
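TR-FRET measured displacement of a biotinylated tetra-acetylated H4 peptide from His6-BRD4(1) (aa 67-152, E. coli-expressed, typically 10 nM) in HEPES pH 7.5 buffer. Compounds were tested at 11 concentrations (0.1 nM–20 μM), with 10 min preincubation, then 1 h at 22 °C and ≥3 h at 4 °C. The 665/620 nm ratio gave IC50 by 4-parameter fit.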

With `COc1cc(C(=O)NCCN2CCN(C)CC2)ccc1Nc1ccc2c(n1)N(C1CCOCC1)[C@H](C)C(=O)N2C` [Example 64, 4-{[(3R)-1,3-Dimethyl-2-oxo-4-(tetrahydro-2H-pyran-4-yl)-1,2,3,4-tetrahydropyrido[2,3-b]pyrazin-6-yl]amino}-3-methoxy-N-[2-(4-methylpiperazin-1-yl)ethyl]benzamide], the IC50 is 310 nM in the experiment with MOLM-13 cell line, 81 nM in experiment [1] and 179 nM in experiment [2].

For the compound `C[C@@H]1C(=O)N(C)c2ccc(Nc3ccc(C(=O)NCCN4CCN(C)CC4)cc3)nc2N1C1CCCCC1` [Example 66, 4-{[(3R)-4-Cyclohexyl-1,3-dimethyl-2-oxo-1,2,3,4-tetrahydropyrido[2,3-b]pyrazin-6-yl]amino}-N-[2-(4-methylpiperazin-1-yl)ethyl]benzamide], the IC50 is 270 nM in the experiment on MOLM-13 cell line, 154 nM in experiment [1] and 140 nM in experiment [2].

As to `COc1cc(C(=O)NCCN2CCN(C)CC2)ccc1Nc1ccc2c(n1)N(C1CCCCC1)[C@H](C)C(=O)N2C` [Example 67, 4-{[(3R)-4-Cyclohexyl-1,3-dimethyl-2-oxo-1,2,3,4-tetrahydropyrido[2,3-b]pyrazin-6-yl]amino}-3-methoxy-N-[2-(4-methylpiperazin-1-yl)ethyl]benzamide], the IC50 in the experiment on MOLM-13 cell line came to 265 nM; in experiment [1] it was 110 nM; in experiment [2], 178 nM.

Take `C[C@@H]1C(=O)N(C)c2ccc(Nc3ccc(C(=O)N[C@H]4CC[C@H](N5CCN(CC6CC6)CC5)CC4)cc3)nc2N1C1CCCCC1` [Example 68, 4-{[(3R)-4-Cyclohexyl-1,3-dimethyl-2-oxo-1,2,3,4-tetrahydropyrido[2,3-b]pyrazin-6-yl]amino}-N-{trans-4-[4-(cyclopropylmethyl)piperazin-1-yl]cyclohexyl}benzamide]: the IC50 in the experiment with MOLM-13 cell line was 548 nM; in experiment [1], 310 nM; in experiment [2], 263 nM.

Turning to `C[C@@H]1C(=O)N(C)c2ccc(Nc3ccc(C(=O)N4CC5(COC5)C4)cc3)nc2N1C1CCCCC1` [Example 69, (3R)-4-Cyclohexyl-1,3-dimethyl-6-{[4-(2-oxa-6-azaspiro[3.3]hept-6-ylcarbonyl)phenyl]amino}-3,4-dihydropyrido[2,3-b]pyrazin-2(1H)-one], the concentration for half-maximal inhibition (IC50) turned out to be 358 nM with MOLM-13 cell line, 89 nM in experiment [1] and 164 nM in experiment [2].

As to `COc1cc(C(=O)N[C@H]2CC[C@H](N3CCN(CC4CC4)CC3)CC2)ccc1Nc1ccc2c(n1)N(C1CCCCC1)[C@H](C)C(=O)N2C` [Example 70, 4-{[(3R)-4-Cyclohexyl-1,3-dimethyl-2-oxo-1,2,3,4-tetrahydropyrido[2,3-b]pyrazin-6-yl]amino}-N-{trans-4-[4-(cyclopropylmethyl)piperazin-1-yl]cyclohexyl}-3-methoxybenzamide], the values for the IC50 (in the experiment with MOLM-13 cell line; in experiment [1]; in experiment [2]) were 233 nM, 120 nM and 239 nM, respectively.

Regarding `COc1cc(C(=O)NC2CN(C)C2)ccc1Nc1ccc2c(n1)N(C1CCCCC1)[C@H](C)C(=O)N2C` [Example 72, 4-{[(3R)-4-Cyclohexyl-1,3-dimethyl-2-oxo-1,2,3,4-tetrahydropyrido[2,3-b]pyrazin-6-yl]amino}-3-methoxy-N-(1-methylazetidin-3-yl)benzamide], the IC50 is 254 nM in the experiment with MOLM-13 cell line, 118 nM in experiment [1] and 131 nM in experiment [2].

Turning to `C[C@@H]1C(=O)N(C)c2ccc(Nc3ccc(C(=O)N4CC5(CCS5(=O)=O)C4)cc3)nc2N1Cc1ccccc1` [Example 75, (3R)-4-Benzyl-6-({4-[(1,1-dioxido-1-thia-6-azaspiro[3.3]hept-6-yl)carbonyl]phenyl}amino)-1,3-dimethyl-3,4-dihydropyrido[2,3-b]pyrazin-2(1H)-one], the IC50 came out at 350 nM with MOLM-13 cell line, 82 nM in experiment [1] and 149 nM in experiment [2].

For `COc1cc(C(=O)NC2CCN(C(C)=O)CC2)ccc1Nc1ccc2c(n1)N(Cc1ccccc1)[C@H](C)C(=O)N2C` [Example 77, N-(1-Acetylpiperidin-4-yl)-4-{[(3R)-4-benzyl-1,3-dimethyl-2-oxo-1,2,3,4-tetrahydropyrido[2,3-b]pyrazin-6-yl]amino}-3-methoxybenzamide], the IC50 with MOLM-13 cell line was found to be 242 nM; in experiment [1], 103 nM; in experiment [2], 55 nM.

Consider `CC(=O)N1CCC(NC(=O)c2ccc(Nc3ccc4c(n3)N(Cc3ccccc3)[C@H](C)C(=O)N4C)cc2)CC1` [Example 78, N-(1-Acetylpiperidin-4-yl)-4-{[(3R)-4-benzyl-1,3-dimethyl-2-oxo-1,2,3,4-tetrahydropyrido[2,3-b]pyrazin-6-yl]amino}benzamide], for which the IC50 in the experiment with MOLM-13 cell line worked out at 243 nM; in experiment [1] it was 111 nM; in experiment [2], 153 nM.

As to `COc1cc(C(=O)NC2CCC(O)CC2)ccc1Nc1ccc2c(n1)N(Cc1ccccc1)[C@H](C)C(=O)N2C` (stereo partly drawn) [Example 79, 4-{[(3R)-4-Benzyl-1,3-dimethyl-2-oxo-1,2,3,4-tetrahydropyrido[2,3-b]pyrazin-6-yl]amino}-N-(4-hydroxycyclohexyl)-3-methoxybenzamide], the results for the IC50 (in the experiment on MOLM-13 cell line; in experiment [1]; in experiment [2]) were 282 nM, 51 nM and 120 nM, respectively.

Consider `COc1cc(C(=O)N2CCN(C(C)C)CC2)ccc1Nc1ccc2c(n1)N(Cc1ccccc1)[C@H](C)C(=O)N2C` [Example 80, (3R)-4-Benzyl-6-[(2-methoxy-4-{[4-(propan-2-yl)piperazin-1-yl]carbonyl}phenyl)amino]-1,3-dimethyl-3,4-dihydro pyrido[2,3-b]pyrazin-2(1H)-one], for which the values for the IC50 (in the experiment on MOLM-13 cell line; in experiment [1]; in experiment [2]) were 170 nM, 138 nM and 137 nM, respectively.

Consider `C[C@@H]1C(=O)N(C)c2ccc(Nc3ccc(C(=O)NCCN4CCN(C)CC4)cc3)nc2N1Cc1ccccc1` [Example 81, 4-{[(3R)-4-Benzyl-1,3-dimethyl-2-oxo-1,2,3,4-tetrahydropyrido[2,3-b]pyrazin-6-yl]amino}-N-[2-(4-methylpiperazin-1-yl)ethyl]benzamide], for which the IC50 is 96 nM with MOLM-13 cell line, 23 nM in experiment [1] and 89 nM in experiment [2].

As to `COc1cc(C(=O)NCCN2CCN(C)CC2)ccc1Nc1ccc2c(n1)N(Cc1ccccc1)[C@H](C)C(=O)N2C` [Example 82, 4-{[(3R)-4-Benzyl-1,3-dimethyl-2-oxo-1,2,3,4-tetrahydropyrido[2,3-b]pyrazin-6-yl]amino}-3-methoxy-N-[2-(4-methylpiperazin-1-yl)ethyl]benzamide], the IC50 with MOLM-13 cell line is 131 nM; in experiment [1] it was 48 nM; in experiment [2], 40 nM.

With `COc1cc(C(=O)N2CC3(COC3)C2)ccc1Nc1ccc2c(n1)N(Cc1ccccc1)[C@H](C)C(=O)N2C` [Example 83, (3R)-4-Benzyl-6-{[2-methoxy-4-(2-oxa-6-azaspiro[3.3]hept-6-ylcarbonyl)phenyl]amino}-1,3-dimethyl-3,4-dihydropyrido[2,3-b]pyrazin-2(1H)-one], the IC50 with MOLM-13 cell line turned out to be 122 nM; in experiment [1] it was 61 nM; in experiment [2] it was 133 nM.

Take `COc1cc(C(=O)NCCN2CCN(C)CC2)ccc1Nc1ccc2c(n1)N(C1CCCCCC1)[C@H](C)C(=O)N2C` [Example 91, 4-{[(3R)-4-Cycloheptyl-1,3-dimethyl-2-oxo-1,2,3,4-tetrahydropyrido[2,3-b]pyrazin-6-yl]amino}-3-methoxy-N-[2-(4-methylpiperazin-1-yl)ethyl]benzamide]: the results for the IC50 (in the experiment on MOLM-13 cell line; in experiment [1]; in experiment [2]) were 353 nM, 135 nM and 154 nM, respectively.
